The values that follow come from ChEMBL document CHEMBL1146379, “Solid phase synthesis and SAR of small molecule agonists for the GPR40 receptor” (Bioorg Med Chem Lett, 2007).

Molecules are shown by their SMILES. pEC50, pIC50, pKi: −log10 of the molar value.

Data set [1] in a line: Bioavailability in rat. Format: ADME, organism-based. The following applies: in vivo.
Data set [2] is filed under the species Homo sapiens. The data set can be described thus: Selectivity for GPR40 over GPR41.
Data set [3] is filed under the species Homo sapiens. The data set can be described thus: Selectivity for GPR40 over GPR43.
Data set [4] addresses Hydroxycarboxylic acid receptor 2 (Homo sapiens, UniProt Q8TDS4). The data set is described as follows: Activity at HM74A receptor.
Data set [5] addresses T1, Peroxisome proliferator-activated receptor alpha (Homo sapiens, UniProt Q07869).
T1 sequence (Q07869 whole entry): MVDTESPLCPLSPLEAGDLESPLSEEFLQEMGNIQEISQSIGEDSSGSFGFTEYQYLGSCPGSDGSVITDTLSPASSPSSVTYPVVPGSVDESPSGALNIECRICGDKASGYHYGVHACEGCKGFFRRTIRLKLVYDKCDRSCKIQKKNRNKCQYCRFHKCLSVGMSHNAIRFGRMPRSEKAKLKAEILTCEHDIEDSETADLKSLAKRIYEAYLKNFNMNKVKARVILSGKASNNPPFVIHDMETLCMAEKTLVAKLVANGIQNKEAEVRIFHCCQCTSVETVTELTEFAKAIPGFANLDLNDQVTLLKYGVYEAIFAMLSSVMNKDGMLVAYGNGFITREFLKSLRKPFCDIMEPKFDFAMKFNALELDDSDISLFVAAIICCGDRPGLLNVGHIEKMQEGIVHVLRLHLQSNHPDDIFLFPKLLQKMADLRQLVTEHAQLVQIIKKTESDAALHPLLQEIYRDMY
The data set can be described thus: Activity at PPARalpha receptor.

Data set [6] deals with T2, Prostaglandin E2 receptor EP1 subtype (Homo sapiens, UniProt P34995).
T2 sequence (P34995 whole entry): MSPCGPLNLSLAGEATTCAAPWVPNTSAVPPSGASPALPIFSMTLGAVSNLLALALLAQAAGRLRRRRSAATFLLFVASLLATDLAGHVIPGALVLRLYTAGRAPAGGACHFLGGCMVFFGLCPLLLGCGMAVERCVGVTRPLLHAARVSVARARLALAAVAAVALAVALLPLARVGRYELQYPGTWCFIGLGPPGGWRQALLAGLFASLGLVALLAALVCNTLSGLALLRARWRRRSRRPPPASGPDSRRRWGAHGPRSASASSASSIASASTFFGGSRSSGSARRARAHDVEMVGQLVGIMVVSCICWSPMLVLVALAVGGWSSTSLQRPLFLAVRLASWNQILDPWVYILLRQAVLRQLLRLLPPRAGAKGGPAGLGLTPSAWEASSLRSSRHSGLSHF
The data set can be described thus: Activity at EP1 receptor.

Data set [7] concerns the target T3, Prostaglandin E2 receptor EP3 subtype (Homo sapiens, UniProt P43115).
T3 sequence (P43115 whole entry): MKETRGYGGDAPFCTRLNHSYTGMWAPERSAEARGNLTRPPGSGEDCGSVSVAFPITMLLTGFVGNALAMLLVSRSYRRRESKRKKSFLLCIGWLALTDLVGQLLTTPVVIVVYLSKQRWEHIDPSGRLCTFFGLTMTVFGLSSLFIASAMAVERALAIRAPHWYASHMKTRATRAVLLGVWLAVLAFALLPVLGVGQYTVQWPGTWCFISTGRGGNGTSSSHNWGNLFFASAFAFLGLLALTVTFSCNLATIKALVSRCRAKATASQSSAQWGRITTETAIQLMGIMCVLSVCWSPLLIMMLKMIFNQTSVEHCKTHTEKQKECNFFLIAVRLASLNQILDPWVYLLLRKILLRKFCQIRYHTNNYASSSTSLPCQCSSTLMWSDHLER
The data set can be described thus: Activity at EP3 receptor.

Another data set concerns the target Cytochrome P450 2C19 (Homo sapiens, UniProt P33261). The data set can be described thus: Inhibition of CYP2C19. Type of data set: ADME.
For a further data set, the target named is Cytochrome P450 2D6 (Homo sapiens, UniProt P10635). The data set can be described thus: Inhibition of CYP2D6. Type of data set: ADME.
A further data set relates to Liver microsomes. The data set is described as follows: Intrinsic clearance in human liver microsomes. Format: ADME, Microsome. (Microsomes from liver hold many membrane-bound enzymes, among them those of drug oxidation.)

Chain of Cytochrome P450 2D6 (P10635 whole entry): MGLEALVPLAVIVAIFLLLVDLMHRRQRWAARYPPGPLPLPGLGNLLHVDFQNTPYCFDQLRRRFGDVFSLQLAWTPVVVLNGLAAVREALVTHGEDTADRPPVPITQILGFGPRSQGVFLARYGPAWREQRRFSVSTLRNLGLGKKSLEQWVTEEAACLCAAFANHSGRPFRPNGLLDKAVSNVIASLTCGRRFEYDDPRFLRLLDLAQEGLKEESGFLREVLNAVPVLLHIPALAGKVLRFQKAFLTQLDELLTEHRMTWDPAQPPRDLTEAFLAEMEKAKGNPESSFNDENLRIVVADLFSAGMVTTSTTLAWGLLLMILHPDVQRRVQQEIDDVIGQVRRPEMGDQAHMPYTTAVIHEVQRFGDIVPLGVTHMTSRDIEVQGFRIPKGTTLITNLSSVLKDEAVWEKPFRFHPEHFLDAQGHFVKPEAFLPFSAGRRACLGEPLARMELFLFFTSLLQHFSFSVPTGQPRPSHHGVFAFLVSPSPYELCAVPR
Chain of Hydroxycarboxylic acid receptor 2 (Q8TDS4 whole entry): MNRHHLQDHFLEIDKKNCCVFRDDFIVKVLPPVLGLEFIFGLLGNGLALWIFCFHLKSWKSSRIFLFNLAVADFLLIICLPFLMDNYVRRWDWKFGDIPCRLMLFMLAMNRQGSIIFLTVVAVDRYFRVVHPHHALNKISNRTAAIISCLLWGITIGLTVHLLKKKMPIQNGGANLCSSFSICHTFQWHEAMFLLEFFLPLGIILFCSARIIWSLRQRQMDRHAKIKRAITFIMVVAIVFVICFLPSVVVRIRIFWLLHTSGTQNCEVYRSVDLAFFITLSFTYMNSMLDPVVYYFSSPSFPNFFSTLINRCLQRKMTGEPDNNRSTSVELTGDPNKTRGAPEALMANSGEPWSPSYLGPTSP
Chain of Cytochrome P450 2C19 (P33261 whole entry): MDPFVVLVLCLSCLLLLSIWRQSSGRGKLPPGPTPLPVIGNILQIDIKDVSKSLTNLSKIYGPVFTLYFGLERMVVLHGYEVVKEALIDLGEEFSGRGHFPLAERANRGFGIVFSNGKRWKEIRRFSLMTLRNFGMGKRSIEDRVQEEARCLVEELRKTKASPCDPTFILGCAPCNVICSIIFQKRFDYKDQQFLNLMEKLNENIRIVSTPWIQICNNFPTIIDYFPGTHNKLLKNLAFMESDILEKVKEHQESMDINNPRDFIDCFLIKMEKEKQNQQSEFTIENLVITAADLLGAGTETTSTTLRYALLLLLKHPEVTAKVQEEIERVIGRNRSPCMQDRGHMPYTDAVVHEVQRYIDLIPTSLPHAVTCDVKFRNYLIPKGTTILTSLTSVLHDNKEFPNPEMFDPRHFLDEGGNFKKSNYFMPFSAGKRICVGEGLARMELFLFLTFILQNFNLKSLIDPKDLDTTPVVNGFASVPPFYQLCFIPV

Take `O=C(O)CCc1ccc(NCc2cccc(Oc3ccccc3)c2)cc1` [GW9508]: the bioavailability – broadly, dose-corrected exposure relative to a reference, in per cent – in data set [1] amounted to 65%. For the same compound, the Fold change in the data set listed under Homo sapiens [2] is 500; in the data set listed under Homo sapiens [3] it was above 500. In addition, the negative-log EC50 (pEC50) (commonly the negative decadic logarithm of the EC50, by convention in mol/L) in data set [4] is below 5.20. Also, the pKi (as a rule, −log10 of the Ki, conventionally taken in molar units) in data set [5] was below 5.50; in data set [6], below 5.80; in data set [7], 6.40. In addition, the pIC50 against Cytochrome P450 2C19 and on Cytochrome P450 2D6 was below 4.48 throughout. This compound gave a CL in the data set on Liver microsomes of 0.74 mL/min/g.
